Counter-ions that a name gives are not always drawn.

Experimental findings from US8119629B2, “Carboxamide GABAA α2 modulators” (Bristol-Meyers Squibb Company, priority 2007, dated 2012) are described below.

In one assay the target is T1, rat GABAA α2β2γ2 Receptors (Rattus norvegicus, UniProt P23576).
T1 construct: expressed in transfected cells; pIRES Neo2 / Hygro2 / Puro2 vectors
T1 sequence (P23576 29-451): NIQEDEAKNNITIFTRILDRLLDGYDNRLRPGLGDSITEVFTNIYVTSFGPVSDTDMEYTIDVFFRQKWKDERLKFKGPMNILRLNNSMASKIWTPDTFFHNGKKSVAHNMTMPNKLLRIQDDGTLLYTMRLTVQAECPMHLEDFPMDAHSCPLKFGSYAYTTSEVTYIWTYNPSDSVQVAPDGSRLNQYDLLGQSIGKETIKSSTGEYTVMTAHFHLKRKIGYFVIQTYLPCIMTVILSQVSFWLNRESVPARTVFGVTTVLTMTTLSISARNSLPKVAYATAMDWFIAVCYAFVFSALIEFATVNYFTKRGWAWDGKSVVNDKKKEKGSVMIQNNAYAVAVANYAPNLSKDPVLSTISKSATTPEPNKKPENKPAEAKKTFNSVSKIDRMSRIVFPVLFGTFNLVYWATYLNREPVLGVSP
T1 sequence (P63138 25-474 partner limits assumed): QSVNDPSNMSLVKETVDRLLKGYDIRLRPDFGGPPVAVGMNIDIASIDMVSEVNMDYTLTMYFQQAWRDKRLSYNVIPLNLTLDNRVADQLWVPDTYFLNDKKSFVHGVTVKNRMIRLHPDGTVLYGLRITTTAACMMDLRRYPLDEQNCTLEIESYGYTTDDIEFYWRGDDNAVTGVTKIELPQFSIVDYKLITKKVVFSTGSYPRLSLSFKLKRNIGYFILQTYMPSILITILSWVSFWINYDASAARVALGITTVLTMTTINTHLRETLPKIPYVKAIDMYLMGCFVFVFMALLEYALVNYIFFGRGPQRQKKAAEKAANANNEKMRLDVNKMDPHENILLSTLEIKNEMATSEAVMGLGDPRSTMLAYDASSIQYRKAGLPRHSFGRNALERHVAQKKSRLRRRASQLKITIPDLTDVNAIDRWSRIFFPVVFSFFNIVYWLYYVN
T1 sequence (P18508 39-466 partner): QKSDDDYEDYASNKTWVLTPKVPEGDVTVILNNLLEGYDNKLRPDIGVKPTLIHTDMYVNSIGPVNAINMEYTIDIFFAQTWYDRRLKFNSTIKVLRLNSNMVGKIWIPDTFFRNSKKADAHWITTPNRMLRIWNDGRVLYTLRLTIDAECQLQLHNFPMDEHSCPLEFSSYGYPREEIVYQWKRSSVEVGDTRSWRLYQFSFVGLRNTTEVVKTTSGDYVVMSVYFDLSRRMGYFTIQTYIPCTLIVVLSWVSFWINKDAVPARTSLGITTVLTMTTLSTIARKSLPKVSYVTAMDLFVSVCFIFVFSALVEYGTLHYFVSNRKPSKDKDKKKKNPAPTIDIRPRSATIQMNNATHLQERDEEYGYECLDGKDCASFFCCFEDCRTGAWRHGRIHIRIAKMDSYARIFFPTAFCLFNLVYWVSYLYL
The assay is described as follows: PatchXpress 7000A automated parallel patch-clamp: potentiation of GABA EC20 current in HEK293 cells. The assay is classed as cell-based. The note with it: percent increase in mean GABA EC20 current response; HEK293 cells stably expressing rat GABAA α2β2γ2; voltage-clamped at −60 mV. On the procedure: Cell Line Generation and Transient Expression. In order to generate stable clonal lines expressing GABAA configurations containing α2β2γ2 subunits, HEK293 cells were transfected with 2 μg of the subunit, using the Invitrogen Lipofectamine PLUS protocol. The following DNA and vector were used for the stable transfection: α2 subunits in pIRES Neo2, β2 subunit in pIRES Hygro2, and a γ2 subunit in pIRES Puro2. Transfectants were selected with G418, Hygromycin B, and Puromycin antibiotics and cloned by limiting dilution. For transient expression, transfections were performed using the Amaxa transfection protocol and 2 μg DNA of the GABAA receptor subunit using Amaxa transfection protocol. Cells were used for experiments 24-72 hrs post transfection.
PatchXpress® 7000A Automated Parallel Patch-Clamp System. HEK293 cells stably expressing recombinant the rat GABAA/α2β2γ2 configuration were harvested by a single DPBS wash followed by 0.025% Trypsin-EDTA treatment for one minute at room temperature. A 6-ml cell suspension (1.7×10^5 cells/ml) was centrifuged at 500 rpm for 60 s. The cell pellet was gently agitated, suspended in 150 μl extracellular saline buffer, and transferred to a 1.5-ml tube.
After manually placing the AVIVA Biosciences SealChip 16™ in the holder of the PatchXpress®, the SealChip16™ was automatically prepared for application of the cells. Intracellular solution containing (in mM) CsCl, 135; EGTA, 11; MgCl2, 1; HEPES, 10; ATP, 5; GTP, 0.3 (pH 7.3 with CsOH, 290-300 mOsmol) was injected into the bottom of each chamber, and extracellular solution containing (in mM) NaCl, 140; KCl, 4; CaCl2, 1.8; MgCl2, 1; glucose, 10; HEPES, 10; ATP-K2, 5 (pH 7.4 with NaOH 305-310 mOsmol) was perfused into the top of the chambers through a 16-nozzle wash station. Throughout this period, the pressure controller maintained a positive pressure (+10 mmHg) from the intracellular side to keep the hole free of debris. Seal formation was achieved by a ramp increase in negative pressure from 0 to −35 mmHg at a rate of −3.5 mmHg/s every 10 s until a giga ohm seal was obtained and verified for 30 s.
Compounds were prepared from fresh DMSO stock and were transferred to a 96-well disposable glass insert compound plate for placement in the PatchXpress®. A full 10 point concentration-response curve for GABA was obtained for the GABA receptor cell line, from which an EC20 was estimated. Test compounds were assayed for their ability to potentiate the current response by an EC20 concentration of GABA. Each experiment began by two consecutive applications of GABA EC20 alone. Following formation of a giga-ohm seal, patch chambers were perfused with extracellular saline for 60 s to remove excess cells from the well. Cells were then voltage-clamped to −60 mV for the duration of the experiment. After 60 s, 30 μl (10 μl/s over 3 s) of GABA EC20 concentration, which elicited a GABA receptor-mediated inward Cl^− current generally in the order of 200-300 pA in peak amplitude, was added to each chamber. The GABA EC20 concentration was then washed out of the recording chamber after 5 s and washing with extracellular saline was continued for 60 s. After another 60 s, a second GABA EC20 concentration was applied under the same paradigm. […] Following the second GABA EC20 application, the lowest concentration of test compound in the presence of the GABA EC20 concentration was similarly applied. Ascending concentrations of the test compound were applied successively to an individual well in the presence of the GABA EC20 concentration.
Only cells meeting strict predetermined patch-clamp QC parameters, including seal resistance, membrane resistance, and holding current were included in data analysis. GABA current responses in the presence of test compound were measured and expressed as the mean of the initial control GABA EC20 current responses. The peak current amplitude was measured using DataXpress/pCLAMP9 (Axon Instruments). Linear leak subtraction was performed off-line. […]
In general terms: The patch-clamp technique gives a direct electrical read-out from membranes.
On to `C#Cc1ccc2c(c1)C(c1ccccc1)=NCc1c(C(=O)NCCOCCNC(=O)c3ncn4c3CN=C(c3ccccc3)c3cc(C#C)ccc3-4)ncn1-2` [Example 23, N,N′-(2,2′-Oxybis(ethane-2,1-diyl))bis(8-ethynyl-6-phenyl-4H-benzo[f]imidazo[1,5-a][1,4]diazepine-3-carboxamide)], for which the “GABAA α2 EP EMAX (%)” value is reported as “* (200% < Emax < 300 *)”. On the same count and under the same terms, the value for `C#Cc1ccc2c(c1)C(c1ccccc1)=NCc1c(C(=O)NCCN(C)CCNC(=O)c3ncn4c3CN=C(c3ccccc3)c3cc(C#C)ccc3-4)ncn1-2` [Example 24, N,N′-(2,2′-(Methylazanediyl)bis(ethane-2,1-diyl))bis(8-ethynyl-6-phenyl-4H-benzo[f]imidazo[1,5-a][1,4]diazepine-3-carboxamide)] was “** (300% < Emax < 400 **)”; that for `C#Cc1ccc2c(c1)C(c1ccccc1)=NCc1c(C(=O)NCCSCCNC(=O)c3ncn4c3CN=C(c3ccccc3)c3cc(C#C)ccc3-4)ncn1-2` [Example 25, N,N′-(2,2′-Thiobis(ethane-2,1-diyl))bis(8-ethynyl-6-phenyl-4H-benzo[f]imidazo[1,5-a][1,4]diazepine-3-carboxamide)] was “* (200% < Emax < 300 *)”.

The assay is the same for the next values; noted with them: percent increase in mean GABA EC20 current response; HEK293 cells stably expressing rat GABAA α2β2γ2; voltage-clamped at −60 mV; read-out: GABAA α2 EP EMAX (%).
As to `C#Cc1ccc2c(c1)C(c1ccccc1)=NCc1c(C(=O)N(CC)CC)ncn1-2` [Example 1, N,N-Diethyl-8-ethynyl-6-phenyl-4H-benzo[f]imidazo[1,5-a][1,4]diazepine-3-carboxamide], the Emax lay within 400 to 500%. Same read-out and setting: under `C#Cc1ccc2c(c1)C(c1ccccc1)=NCc1c(C(=O)NCC)ncn1-2` [Example 2, N-Ethyl-8-ethynyl-6-phenyl-4H-benzo[f]imidazo[1,5-a][1,4]diazepine-3-carboxamide dihydrochloride] stands 300 to 400%; under `C#Cc1ccc2c(c1)C(c1ccccc1)=NCc1c(C(N)=O)ncn1-2` [Example 3, 8-Ethynyl-6-phenyl-4H-benzo[f]imidazo[1,5-a][1,4]diazepine-3-carboxamide], 300 to 400%.

Turning to `C#Cc1ccc2c(c1)C(c1ccccc1)=NCc1c(C(=O)NCCOC)ncn1-2` [Example 4, 8-Ethynyl-N-(2-methoxyethyl)-6-phenyl-4H-benzo[f]imidazo[1,5-a][1,4]diazepine-3-carboxamide Dihydrochloride], the Emax was over 500%. As for `C#Cc1ccc2c(c1)C(c1ccccc1)=NCc1c(C(=O)NCCO)ncn1-2` [Example 5, 8-Ethynyl-N-(2-hydroxyethyl)-6-phenyl-4H-benzo[f]imidazo[1,5-a][1,4]diazepine-3-carboxamide], the Emax was 400 to 500%. As to `C#Cc1ccc2c(c1)C(c1ccccc1)=NCc1c(C(=O)NCCN(C)C)ncn1-2` [Example 6, N-(2-(Dimethylamino)ethyl)-8-ethynyl-6-phenyl-4H-benzo[f]imidazo[1,5-a][1,4]diazepine-3-carboxamide], the Emax was in the range of 300 to 400%.

For `C#Cc1ccc2c(c1)C(c1ccccc1)=NCc1c(C(=O)NCC(=O)OCC)ncn1-2` [Example 7, Ethyl 2-(8-ethynyl-6-phenyl-4H-benzo[f]imidazo[1,5-a][1,4]diazepine-3-carboxamido)acetate], the Emax is 300 to 400%. For the molecule `C#Cc1ccc2c(c1)C(c1ccccc1)=NCc1c(C(=O)N3CCN(C)CC3)ncn1-2` [Example 8, (8-Ethynyl-6-phenyl-4H-benzo[f]imidazo[1,5-a][1,4]diazepin-3-yl)(4-methylpiperazin-1-yl)methanone], the maximal response (Emax) is 300 to 400%. On the same count and under the same terms, under `C#Cc1ccc2c(c1)C(c1ccccc1)=NCc1c(C(=O)N3CCOCC3)ncn1-2` [Example 9] stands 400 to 500%; under `C#Cc1ccc2c(c1)C(c1ccccc1)=NCc1c(C(=O)NC3CC3)ncn1-2` [Example 10, N-Cyclopropyl-8-ethynyl-6-phenyl-4H-benzo[f]imidazo[1,5-a][1,4]diazepine-3-carboxamide], over 500%; under `C#Cc1ccc2c(c1)C(c1ccccc1)=NCc1c(C(=O)NCCOCC)ncn1-2` [Example 12, N-(2-Ethoxyethyl)-8-ethynyl-6-phenyl-4H-benzo[f]imidazo[1,5-a][1,4]diazepine-3-carboxamide dihydrochloride], 300 to 400%. As to `C#Cc1ccc2c(c1)C(c1ccccc1)=NCc1c(C(=O)NC(CC)COC)ncn1-2` (stereo not shown) [Example 13, 8-Ethynyl-N-(1-methoxybutan-2-yl)-6-phenyl-4H-benzo[f]imidazo[1,5-a][1,4]diazepine-3-carboxamide], the maximal response (Emax) was in the range of 200 to 300%. As to `C#Cc1ccc2c(c1)C(c1ccccc1)=NCc1c(C(=O)N[C@@H](COC)C3CC3)ncn1-2` [Example 14, N—((R)-1-Cyclopropyl-2-methoxyethyl)-8-ethynyl-6-phenyl-4H-benzo[f]imidazo[1,5-a][1,4]diazepine-3-carboxamide], the Emax was 200 to 300%. Take `C#Cc1ccc2c(c1)C(c1ccccc1)=NCc1c(C(=O)NC(COC)COC)ncn1-2` [Example 15, N-(1,3-Dimethoxypropan-2-yl)-8-ethynyl-6-phenyl-4H-benzo[f]imidazo[1,5-a][1,4]diazepine-3-carboxamide]: the maximal effect (Emax) was in the range of 200 to 300%. Consider `C#Cc1ccc2c(c1)C(c1ccccc1)=NCc1c(C(=O)N(CCOC)CCOC)ncn1-2` [Example 16, 8-Ethynyl-N,N-bis(2-methoxyethyl)-6-phenyl-4H-benzo[f]imidazo[1,5-a][1,4]diazepine-3-carboxamide], for which the maximal effect (Emax) was 200 to 300%. Regarding `C#Cc1ccc2c(c1)C(c1ccccc1)=NCc1c(C(=O)NC(C)COC)ncn1-2` (stereo not shown) [Example 17, 8-Ethynyl-N-(1-methoxypropan-2-yl)-6-phenyl-4H-benzo[f]imidazo[1,5-a][1,4]diazepine-3-carboxamide], the maximal effect (Emax) lay within 200 to 300%. On to `C#Cc1ccc2c(c1)C(c1ccccc1)=NCc1c(C(=O)NCCCOC)ncn1-2` [Example 18, 8-Ethynyl-N-(3-methoxypropyl)-6-phenyl-4H-benzo[f]imidazo[1,5-a][1,4]diazepine-3-carboxamide], for which the maximum response (Emax) was in the range of 400 to 500%. Same read-out and setting: the value for `C#Cc1ccc2c(c1)C(c1ccccc1)=NCc1c(C(=O)NCCOCCC)ncn1-2` [Example 19, 8-Ethynyl-6-phenyl-N-(2-propoxyethyl)-4H-benzo[f]imidazo[1,5-a][1,4]diazepine-3-carboxamide] was 400 to 500%; that for `C#Cc1ccc2c(c1)C(c1ccccc1)=NCc1c(C(=O)NCCOC(C)C)ncn1-2` [Example 20, 8-Ethynyl-N-(2-isopropoxyethyl)-6-phenyl-4H-benzo[f]imidazo[1,5-a][1,4]diazepine-3-carboxamide] was 400 to 500%. For the molecule `C#Cc1ccc2c(c1)C(c1ccccc1)=NCc1c(C(=O)N3CCN(c4ncccn4)CC3)ncn1-2` [Example 21, (8-Ethynyl-6-phenyl-4H-benzo[f]imidazo[1,5-a][1,4]diazepin-3-yl)(4-(pyrimidin-2-yl)piperazin-1-yl)methanone], the Emax lay in the range of 200 to 300%. Regarding `C#Cc1ccc2c(c1)C(c1ccccc1)=NCc1c(C(=O)NCC(O)CC)ncn1-2` (stereo not shown) [Example 26, 8-Ethynyl-N-(2-hydroxybutyl)-6-phenyl-4H-benzo[f]imidazo[1,5-a][1,4]diazepine-3-carboxamide], the Emax lay in the range of 200 to 300%. `C#Cc1ccc2c(c1)C(c1ccccc1)=NCc1c(C(=O)NC[C@@H](C)O)ncn1-2` [Example 27, 8-Ethynyl-N—((R)-2-hydroxypropyl)-6-phenyl-4H-benzo[f]imidazo[1,5-a][1,4]diazepine-3-carboxamide]: the Emax was in the range of 200 to 300%.

For orientation: Emax means the greatest response seen or fitted, relative to the assay's reference.
